Results: patent US20080113926A1, “9A-Carbamoyl-Y-Aminopropyl- And 9A-Thiocabamoyl-Y-Aminopropyl-Azalides With Antimalarial Activity” (priority 2005, published 2008)
≈ marks a conversion by molar mass, not a printed value.

Key:
Format in all cases: cell-based
[1] = test system: Plasmodium falciparum clone CDC/Indochina III (W-2); assay: In vitro antimalarial [3H]-hypoxanthine incorporation serial dilution assay, W2; conditions: Plasmodium falciparum, W2, 72 h, P. falciparum W2, parasites exposed for 72 hours
From the text: (§1) The in vitro screens for intrinsic antimalarial activity were based on modifications of the procedures described by Desjardins R E, Canfield C J, Haynes J D, Chulay J D. (Quantitative assessment of antimalarial activity in vitro by a semiautomated microdilution technique. Antimicrob Agents Chemother. 1979 December; 16(6):710-8), Chulay J D, Haynes J D, Diggs C L. (Plasmodium falciparum: Assessment of in vitro growth by [3H]hypoxanthine incorporation. Exp. Parasitol. 1983 55:138-146), and Milhous W K, Weatherly N F, Bowdre J H, Desjardins R E. (In vitro activities of and mechanisms of resistance to antifol antimalarial drugs. Antimicrob Agents Chemother. 1985 April; 27(4):525-30). The system was limited to the assessment of the intrinsic activity against the erythrocytic asexual life cycle (blood schizontocides). Two Plasmodium falciparum clones from CDC/Indochina III (W-2) and CDC/Sierra Leone I (D-6) (Oduola A M, Weatherly N F, Bowdre J H, Desjardins R E. Plasmodium falciparum: cloning by single-erythrocyte micromanipulation and heterogeneity in vitro. Exp Parasitol. 1988 66(1):86-95) were used for all assays. TM91C235, a multiple drug resistant isolate from Thailand, was used for the prescreening assay. W-2 is resistant to chloroquine, quinine, and pyrimethamine and susceptible to mefloquine. D-6 tends to be more resistant to mefloquine and susceptible to chloroquine, quinine, and pyrimethamine. All documents cited in this paragraph are incorporated by reference in their entirety.
(§2) All parasites were maintained in continuous long term cultures in RPMI-1640 medium supplemented with 6% washed human A positive (A+) (erythrocytes, 25 mM Hepes, […], and 10% heat inactivated A+ human plasma or ALBUMAX® (lipid-rich bovine serum albumin; Invitrogen, Carlsbad, Calif.). All cultures and assays were conducted at 37° C. under an atmosphere of 5% CO2 and 5% O2, with a balance of N2.
(§3) The prescreening assay uses TM91C235 diluted at a 0.4% parasitemia in a 1% hematocrit in folic acid free and p-aminobenzoic acid free media RPMI-1640 and ALBUMAX®. One mg of the compound is typically dissolved in 100 μl of dimethyl sulfoxide (DMSO). The compound is further diluted in culture medium (FF) with ALBUMAX® for the first initial starting concentration. The rest of the stock drug solution was kept at −70° C. The isolate was preexposed, in duplicate, at three concentrations (25,000 ng/ml, 2,500 ng/ml, and 25 ng/ml) of the test compound for 48 hr in a 96-well microtiter plate (MTP) using the BIOMEK® 2000 automated laboratory workstation. Each MTP contains chloroquine as control to assess the relative activity of the compound and to monitor the response of TM91C235.
(§4) After the preincubation, [^3H]-hypoxanthine was added to each well of the MTP. (The assay relies on the incorporation of radiolabeled hypoxanthine by the parasites, which indicates reproduction, and inhibition of isotope incorporation was attributed to activity of known or candidate antimalarial drugs). After 72 hr of total incubation time, the MTP were frozen to lyse the erythrocytes and parasites. The parasite DNA was recovered by harvesting the lysate onto glass-fiber filter plates using a Packard FilterMate™ Cell Harvester. The radioactivity was counted on a Packard TopCount™ microplate scintillation counter. The results were recorded as counts per minutes (CPM) per well at each drug concentration divided by the arithmetic mean of the CPM from the three untreated infection parasite control wells.
(§5) The serial dilution assay was conducted using the same assay conditions and stock solution of the compound used for the preliminary screen, described above. Both the D-6 and the W-2 clones were used. The compounds were diluted two-fold over 11 different concentration ranges with a starting concentration that was based on the preliminary screen. […]

[2] = test system: Plasmodium falciparum clone CDC/Sierra Leone I (D-6); assay: In vitro antimalarial [3H]-hypoxanthine incorporation serial dilution assay, D6; conditions: Plasmodium falciparum; P. falciparum D6, parasites exposed for 72 hours
From the text: as §1, §2, §3, §4, §5

[3] = test system: Plasmodium falciparum TM91C235; assay: In vitro antimalarial [3H]-hypoxanthine incorporation serial dilution assay, TM91C235; conditions: Plasmodium falciparum; P. falciparum TM91C235, parasites exposed for 72 hours

SMILES | IC50 [1] [µg/mL] | IC50 [2] [µg/mL] | IC50 [3] [µg/mL]
CC[C@H]1OC(=O)[C@H](C)[C@@H](O[C@H]2C[C@@](C)(OC)[C@@H](O)[C@H](C)O2)[C@H](C)[C@@H](O[C@@H]2O[C@H](C)C[C@H](N(C)C)[C@H]2O)[C@](C)(O)C[C@@H](C)CN(CCCN(CCC#N)C(=S)NCc2ccccc2)[C@H](C)[C@@H](O)[C@]1(C)O [Compound 12] | 0.2 (≈ 0.201 µM) | 0.233 (≈ 0.235 µM) | 0.163 (≈ 0.164 µM)
CC[C@H]1OC(=O)[C@H](C)[C@@H](O[C@H]2C[C@@](C)(OC)[C@@H](O)[C@H](C)O2)[C@H](C)[C@@H](O[C@@H]2O[C@H](C)C[C@H](N(C)C)[C@H]2O)[C@](C)(O)C[C@@H](C)CN(CCCN(CCC#N)C(=O)Nc2ccc(Cl)cc2Cl)[C@H](C)[C@@H](O)[C@]1(C)O [Compound 11] | 0.217 (≈ 0.21 µM) | 0.276 (≈ 0.267 µM) | 0.161 (≈ 0.156 µM)
CC[C@H]1OC(=O)[C@H](C)[C@@H](O[C@H]2C[C@@](C)(OC)[C@@H](O)[C@H](C)O2)[C@H](C)[C@@H](O[C@@H]2O[C@H](C)C[C@H](N(C)C)[C@H]2O)[C@](C)(O)C[C@@H](C)CN(CCCNC(=O)NS(=O)(=O)c2ccccc2C)[C@H](C)[C@@H](O)[C@]1(C)O [Compound 21] | 1 (≈ 1.01 µM) | 0.427 (≈ 0.432 µM) | > 1.62
CC[C@H]1OC(=O)[C@H](C)[C@@H](O)[C@H](C)[C@@H](O[C@@H]2O[C@H](C)C[C@H](N(C)C)[C@H]2O)[C@](C)(O)C[C@@H](C)CN(CCCNC(=S)NCCCc2ccccc2)[C@H](C)[C@@H](O)[C@]1(C)O [Compound 28] | 0.41 (≈ 0.506 µM) | 0.864 (≈ 1.06 µM) | 0.255 (≈ 0.314 µM)
CC[C@H]1OC(=O)[C@H](C)[C@@H](O[C@H]2C[C@@](C)(OC)[C@@H](O)[C@H](C)O2)[C@H](C)[C@@H](O[C@@H]2O[C@H](C)C[C@H](N(C)C)[C@H]2O)[C@](C)(O)C[C@@H](C)CN(CCCNC(=O)NS(=O)(=O)c2ccccc2Cl)[C@H](C)[C@@H](O)[C@]1(C)O [Compound 22] | > 1.76 | > 0.797 | 1.53 (≈ 1.52 µM)
CC[C@H]1OC(=O)[C@H](C)[C@@H](O[C@H]2C[C@@](C)(OC)[C@@H](O)[C@H](C)O2)[C@H](C)[C@@H](O[C@@H]2O[C@H](C)C[C@H](N(C)C)[C@H]2O)[C@](C)(O)C[C@@H](C)CN(CCCNC(=S)N(CCC#N)CCCc2ccccc2)[C@H](C)[C@@H](O)[C@]1(C)O [Compound 4] | 0.0768 (≈ 0.0751 µM) | 0.228 (≈ 0.223 µM) | 0.0541 (≈ 0.0529 µM)
CC[C@H]1OC(=O)[C@H](C)[C@@H](O[C@H]2C[C@@](C)(OC)[C@@H](O)[C@H](C)O2)[C@H](C)[C@@H](O[C@@H]2O[C@H](C)C[C@H](N(C)C)[C@H]2O)[C@](C)(O)C[C@@H](C)CN(CCCN(CCC#N)C(=O)Nc2cc(OC)c(OC)c(OC)c2)[C@H](C)[C@@H](O)[C@]1(C)O [Compound 16] | > 1.76 | 0.487 (≈ 0.462 µM) | 0.272 (≈ 0.258 µM)
CC[C@H]1OC(=O)[C@H](C)[C@@H](O)[C@H](C)[C@@H](O[C@@H]2O[C@H](C)C[C@H](N(C)C)[C@H]2O)[C@](C)(O)C[C@@H](C)CN(CCCN(CCC#N)C(=O)Nc2ccc3ccccc3c2)[C@H](C)[C@@H](O)[C@]1(C)O [Compound 34] | – | 0.203 (≈ 0.237 µM) | 0.191 (≈ 0.223 µM)
CC[C@H]1OC(=O)[C@H](C)[C@@H](O)[C@H](C)[C@@H](O[C@@H]2O[C@H](C)C[C@H](N(C)C)[C@H]2O)[C@](C)(O)C[C@@H](C)CN(CCCN(CCC#N)C(=S)NCCCc2ccccc2)[C@H](C)[C@@H](O)[C@]1(C)O [Compound 32] | – | 0.155 (≈ 0.18 µM) | 0.106 (≈ 0.122 µM)
CC[C@H]1OC(=O)[C@H](C)[C@@H](O[C@H]2C[C@@](C)(OC)[C@@H](O)[C@H](C)O2)[C@H](C)[C@@H](O[C@@H]2O[C@H](C)C[C@H](N(C)C)[C@H]2O)[C@](C)(O)C[C@@H](C)CN(CCCN(CCC#N)C(=O)NCc2ccccc2)[C@H](C)[C@@H](O)[C@]1(C)O [Compound 18] | 0.405 (≈ 0.414 µM) | 0.776 (≈ 0.793 µM) | 0.522 (≈ 0.534 µM)
CC[C@H]1OC(=O)[C@H](C)[C@@H](O[C@H]2C[C@@](C)(OC)[C@@H](O)[C@H](C)O2)[C@H](C)[C@@H](O[C@@H]2O[C@H](C)C[C@H](N(C)C)[C@H]2O)[C@](C)(O)C[C@@H](C)CN(CCCNC(=O)Nc2ccc3ccccc3c2)[C@H](C)[C@@H](O)[C@]1(C)O [Compound 1] | 0.141 (≈ 0.146 µM) | 0.145 (≈ 0.151 µM) | 0.0832 (≈ 0.0866 µM)
CC[C@H]1OC(=O)[C@H](C)[C@@H](O[C@H]2C[C@@](C)(OC)[C@@H](O)[C@H](C)O2)[C@H](C)[C@@H](O[C@@H]2O[C@H](C)C[C@H](N(C)C)[C@H]2O)[C@](C)(O)C[C@@H](C)CN(CCCN(CCC#N)C(=O)NC(C)c2cccc3ccccc23)[C@H](C)[C@@H](O)[C@]1(C)O (some centres unmarked) [Compound 10] | 0.308 (≈ 0.296 µM) | 0.254 (≈ 0.244 µM) | 0.16 (≈ 0.153 µM)
CC[C@H]1OC(=O)[C@H](C)[C@@H](O)[C@H](C)[C@@H](O[C@@H]2O[C@H](C)C[C@H](N(C)C)[C@H]2O)[C@](C)(O)C[C@@H](C)CN(CCCN(CCC#N)C(=O)Nc2ccc(Cl)cc2Cl)[C@H](C)[C@@H](O)[C@]1(C)O [Compound 33] | – | 0.962 (≈ 1.1 µM) | 0.277 (≈ 0.316 µM)
CC[C@H]1OC(=O)[C@H](C)[C@@H](O[C@H]2C[C@@](C)(O)[C@@H](O)[C@H](C)O2)[C@H](C)[C@@H](O[C@@H]2O[C@H](C)C[C@H](N(C)C)[C@H]2O)[C@](C)(O)C[C@@H](C)CN(CCCNC(=O)Nc2cccc3ccccc23)[C@H](C)[C@@H](O)[C@]1(C)O [Compound 8] | 0.176 (≈ 0.186 µM) | 0.268 (≈ 0.282 µM) | 0.143 (≈ 0.151 µM)
CC[C@H]1OC(=O)[C@H](C)[C@@H](O[C@H]2C[C@@](C)(OC)[C@@H](O)[C@H](C)O2)[C@H](C)[C@@H](O[C@@H]2O[C@H](C)C[C@H](N(C)C)[C@H]2O)[C@](C)(O)C[C@@H](C)CN(CCCNC(=S)NCc2ccccc2)[C@H](C)[C@@H](O)[C@]1(C)O [Compound 13] | 0.18 (≈ 0.191 µM) | 0.291 (≈ 0.309 µM) | 0.189 (≈ 0.2 µM)
CC[C@H]1OC(=O)[C@H](C)[C@@H](O[C@H]2C[C@@](C)(OC)[C@@H](O)[C@H](C)O2)[C@H](C)[C@@H](O[C@@H]2O[C@H](C)C[C@H](N(C)C)[C@H]2O)[C@](C)(O)C[C@@H](C)CN(CCCN(CCC#N)C(=O)Nc2ccccc2C(F)(F)F)[C@H](C)[C@@H](O)[C@]1(C)O [Compound 23] | 0.0626 (≈ 0.0606 µM) | 0.535 (≈ 0.518 µM) | 0.153 (≈ 0.148 µM)
CC[C@H]1OC(=O)[C@H](C)[C@@H](O[C@H]2C[C@@](C)(OC)[C@@H](O)[C@H](C)O2)[C@H](C)[C@@H](O[C@@H]2O[C@H](C)C[C@H](N(C)C)[C@H]2O)[C@](C)(O)C[C@@H](C)CN(CCCNC(=O)NCc2ccccc2)[C@H](C)[C@@H](O)[C@]1(C)O [Compound 17] | 0.351 (≈ 0.379 µM) | 0.566 (≈ 0.612 µM) | 0.278 (≈ 0.3 µM)
CC[C@H]1OC(=O)[C@H](C)[C@@H](O)[C@H](C)[C@@H](O[C@@H]2O[C@H](C)C[C@H](N(C)C)[C@H]2O)[C@](C)(O)C[C@@H](C)CN(CCCN(CCC#N)C(=S)NCCc2ccccc2)[C@H](C)[C@@H](O)[C@]1(C)O [Compound 31] | – | 0.192 (≈ 0.226 µM) | 0.157 (≈ 0.184 µM)
CC[C@H]1OC(=O)[C@H](C)[C@@H](O[C@H]2C[C@@](C)(OC)[C@@H](O)[C@H](C)O2)[C@H](C)[C@@H](O[C@@H]2O[C@H](C)C[C@H](N(C)C)[C@H]2O)[C@](C)(O)C[C@@H](C)CN(CCCNC(=O)NC(C)c2cccc3ccccc23)[C@H](C)[C@@H](O)[C@]1(C)O (some centres unmarked) [Compound 6] | 0.246 (≈ 0.249 µM) | 0.292 (≈ 0.295 µM) | 0.118 (≈ 0.119 µM)
CC[C@H]1OC(=O)[C@H](C)[C@@H](O)[C@H](C)[C@@H](O[C@@H]2O[C@H](C)C[C@H](N(C)C)[C@H]2O)[C@](C)(O)C[C@@H](C)CN(CCCNC(=O)Nc2cccc3ccccc23)[C@H](C)[C@@H](O)[C@]1(C)O [Compound 30] | 0.471 (≈ 0.586 µM) | > 0.797 | 0.508 (≈ 0.633 µM)
